Consider one molecule from patent publication US20150274932A1, “USE OF BIOCIDES AS FLAME RETARDANTS” (BAYER CROPSCIENCE AG, priority 2012, published 2015).

The structures appear in SMILES notation.

The nature of this data set: ASTM D 1929 ignition temperature test, polypropylene beads with and without Deltamethrin. It is filed as physicochemical. The note with it: polypropylene beads with 11 wt % Deltamethrin and 2 wt % Bumetrizole vs pure polypropylene beads; air velocity 25 mm/s; FIG. 1. An excerpt: ASTM D 1929: Standard Test Method for Determining Ignition Temperature of Plastics
The objective of this method is to determine at which temperature plastic material (sheet or granules) release flammable gases and vapors to such an extent, that an explosive mixture with air can be formed, that can be ignited with a pilot flame.
This “flash-point” of plastics is an important safety characteristic, which can be used to assess explosion and fire risk in plant where plastic material is processed, handled or stored. The objective of this method is to determine the temperature at which gases and vapors released from plastic sheets or granules spontaneously catch fire, i.e. without contact to an external ignition source. The Self-Ignition Temperature is relevant for the assessment of ignition risks due to hot surfaces in plant where plastic material is processed, e.g. in extruders. The tests are carried out by exposing the test item (sample) in an oven to a controlled stream of hot, fresh air. Ignition is detected by monitoring the temperature of the sample. For flash ignition, a pilot flame above the exhaust of the oven is used. For self-ignition test, no external ignition source is applied. The test are carried out in isothermal mode, i.e. at constant temperature. Several trials, at different temperatures are necessary to find the lowest temperature, at which ignition does occur. […]

`CC1(C)[C@H](C(=O)O[C@H](C#N)c2cccc(Oc3ccccc3)c2)[C@@H]1C=C(Br)Br` [Deltamethrin]: the flash ignition temperature entry is “higher flash ignition temperature” and the spontaneous ignition temperature entry is reported as “higher spontaneous ignition temperature”.
